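Cultured in 96-well plates, cells were exposed to test compound for 48 hours across five concentrations. GI50 = concentration required for 50% inhibition of growth.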 The source made the active and inactive calls. No stated cut-off is given here; in the data, active = GI50 up to about 1.1 µM and inactive = higher.
Experiments:
Test in all cases: NCI tumour cell line growth inhibition, 48 h
ACHN = test system: ACHN
CCRF-CEM = test system: CCRF-CEM
HCT-116 = test system: HCT-116
KM12 = test system: KM12
LOX IMVI = test system: LOX IMVI
MCF7 = test system: MCF7
MDA-N = test system: MDA-N
NCI/ADR-RES = test system: NCI/ADR-RES
OVCAR-3 = test system: OVCAR-3
OVCAR-4 = test system: OVCAR-4
PC-3 = test system: PC-3
RXF 393 = test system: RXF 393
SF-268 = test system: SF-268
SF-295 = test system: SF-295
SR = test system: SR
SW-620 = test system: SW-620
T47D = test system: T47D
UO-31 = test system: UO-31
SK-MEL-2 = test system: SK-MEL-2

Measured: GI50

CCN(CC)CCC(=O)c1ccc(C)cc1
inactive: ACHN 20.6 µM | CCRF-CEM 10.1 µM | HCT-116 16.3 µM | KM12 > 10 µM | LOX IMVI 29.9 µM | MCF7 4.88 µM | MDA-N 20.7 µM | NCI/ADR-RES 25.5 µM | OVCAR-3 17.7 µM | OVCAR-4 23.5 µM | PC-3 54.7 µM | RXF 393 17 µM | SF-268 > 100 µM | SF-295 > 100 µM | SR 28 µM | SW-620 17 µM | T47D 14.7 µM | UO-31 23 µM

NC(CCC(=O)O)C(=O)N1CCN(c2nc(N3CCCC3)c3nc(Cl)c(NCc4ccccc4)nc3n2)CC1 (stereo unspecified)
inactive: ACHN 15.1 µM | CCRF-CEM 7.19 µM | HCT-116 13.9 µM | KM12 16.1 µM | LOX IMVI 14.6 µM | MCF7 7.24 µM | MDA-N 10.1 µM | NCI/ADR-RES 20.8 µM | OVCAR-3 8.71 µM | OVCAR-4 10.5 µM | PC-3 13.3 µM | SF-268 13.1 µM | SF-295 11.6 µM | SK-MEL-2 15.6 µM | SR 3.68 µM | SW-620 18.2 µM | T47D 6.64 µM | UO-31 9.29 µM

O=C(CC(C(=O)c1ccc(F)cc1)c1ccsc1)c1cccs1 (stereo unspecified)
inactive: ACHN > 100 µM | CCRF-CEM 68.9 µM | HCT-116 60.5 µM | KM12 44.8 µM | MCF7 82.2 µM | MDA-N 79.8 µM | NCI/ADR-RES 96.4 µM | OVCAR-4 94.8 µM | PC-3 57.9 µM | SF-268 > 100 µM | SF-295 67.6 µM | SK-MEL-2 > 100 µM | SR 39.4 µM | SW-620 > 100 µM | T47D 26.7 µM | UO-31 25.2 µM

Cc1cccc(/C=N/NC(=S)NC(C)(C)C)n1
inactive: ACHN 35.6 µM | CCRF-CEM 1.64 µM | HCT-116 19.7 µM | KM12 > 100 µM | LOX IMVI 66.5 µM | MCF7 18.5 µM | MDA-N > 100 µM | NCI/ADR-RES 33.7 µM | OVCAR-3 30.8 µM | OVCAR-4 62.7 µM | PC-3 23.7 µM | SF-268 41 µM | SF-295 > 100 µM | SK-MEL-2 > 100 µM | SR 23.7 µM | SW-620 16 µM | T47D 6.24 µM | UO-31 62.4 µM

[N-]=[N+]=C1CNC(=O)NC1=O
inactive: ACHN 69.3 µM | CCRF-CEM 24.3 µM | HCT-116 > 100 µM | KM12 > 100 µM | LOX IMVI 60.1 µM | MCF7 > 100 µM | MDA-N > 100 µM | NCI/ADR-RES > 100 µM | OVCAR-3 > 100 µM | OVCAR-4 > 100 µM | PC-3 > 100 µM | RXF 393 > 100 µM | SF-268 > 100 µM | SF-295 > 100 µM | SK-MEL-2 > 100 µM | SW-620 > 100 µM | T47D > 100 µM | UO-31 > 100 µM

Cc1cccc2c1C(=O)/C(=C/c1ccccc1C(=O)O)C2
inactive: ACHN > 100 µM | CCRF-CEM > 100 µM | HCT-116 98.6 µM | KM12 > 100 µM | LOX IMVI > 100 µM | MCF7 > 100 µM | MDA-N > 100 µM | NCI/ADR-RES > 100 µM | OVCAR-3 > 100 µM | OVCAR-4 > 100 µM | PC-3 > 100 µM | RXF 393 > 100 µM | SF-268 > 100 µM | SF-295 > 100 µM | SK-MEL-2 > 100 µM | SW-620 > 100 µM | T47D > 100 µM | UO-31 > 100 µM
